Measurements taken from patent US20060258729A1, “Antibacterial pyrazole carboxylic acid hydrazides” (priority 2002, published 2006).
Converted amounts (≈) assume the structure as drawn.

Columns and labels:
B. subtilis pol IIIC = molecular target: T1, B. subtilis pol IIIC (Bacillus subtilis, UniProt P13267); experiment: DNA polymerase assay, B. subtilis pol IIIC; type: biochemical
T1 construct: made in house

[1] = test system: Staphylococcus aureus strain IP 8; experiment: Inhibition of bacterial growth (MIC), Sa; type: cell-based; conditions: IP8, 16 to 18 hours, 37° C., read-out: Minimum Inhibitory Concentration for Bacterial Growth, Sa
Summary of the method: (§1)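 Compounds are diluted two-fold in DMSO over 11 concentrations, commonly 80 down to 0.078 μg/mL, then combined with bacteria at 1×10^5 CFU/mL in LB or BHI (final DMSO 1%).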

[2] = test system: Escherichia coli strain J53; experiment: Inhibition of bacterial growth (MIC), Ec; type: cell-based; conditions: 16 to 18 hours, 37° C., read-out: Minimum Inhibitory Concentration for Bacterial Growth, Ec
Summary of the method: as §1

test strains of bacteria = experiment: Inhibition of bacterial growth, whole panel of test strains; type: cell-based
Protocol: Each compound was assayed against a panel of a strain of Bacillus subtilis, of strains of antibiotic-resistant and sensitive Enterococcus and Staphylococcus species, and of a strain of the Gram-negative bacterium Escherichia coli. Compounds were dissolved in DMSO at 100× the desired highest concentration and added to one well of a 96-well microassay plate. Two-fold serial drug dilutions were made across the plate in DMSO to yield 11 concentrations (usually 80-0.078 μg/mL) plus an untreated control. Drugs were then transferred to fresh plates using 1.5 μL per well. Log phase cultures were diluted to yield a concentration of 1×10^5 colony forming units/mL in either LB or BHI medium and transferred to the plates containing drug for a final volume of 150 μL. Each well, including the DMSO controls, contained a final concentration of 1% DMSO. Plates were incubated with shaking at 37° C. for 16 to 18 hours. Cell growth was determined by measuring optical density (570 nm, 1 cm path length) in a microplate reader. MIC (minimum inhibitory concentration) is equivalent to the lowest concentration at which growth is not observed. The bacterial strains and MIC determinations have been well characterized and are described elsewhere (Tarantino et al., Antimicrob. Agents Chemother., 43: 1982-1987 (1999); Daly et al., Antimicrob. Agents Chemother., 44: 2217-2221 (2000)).

T1 sequence (P13267 whole entry): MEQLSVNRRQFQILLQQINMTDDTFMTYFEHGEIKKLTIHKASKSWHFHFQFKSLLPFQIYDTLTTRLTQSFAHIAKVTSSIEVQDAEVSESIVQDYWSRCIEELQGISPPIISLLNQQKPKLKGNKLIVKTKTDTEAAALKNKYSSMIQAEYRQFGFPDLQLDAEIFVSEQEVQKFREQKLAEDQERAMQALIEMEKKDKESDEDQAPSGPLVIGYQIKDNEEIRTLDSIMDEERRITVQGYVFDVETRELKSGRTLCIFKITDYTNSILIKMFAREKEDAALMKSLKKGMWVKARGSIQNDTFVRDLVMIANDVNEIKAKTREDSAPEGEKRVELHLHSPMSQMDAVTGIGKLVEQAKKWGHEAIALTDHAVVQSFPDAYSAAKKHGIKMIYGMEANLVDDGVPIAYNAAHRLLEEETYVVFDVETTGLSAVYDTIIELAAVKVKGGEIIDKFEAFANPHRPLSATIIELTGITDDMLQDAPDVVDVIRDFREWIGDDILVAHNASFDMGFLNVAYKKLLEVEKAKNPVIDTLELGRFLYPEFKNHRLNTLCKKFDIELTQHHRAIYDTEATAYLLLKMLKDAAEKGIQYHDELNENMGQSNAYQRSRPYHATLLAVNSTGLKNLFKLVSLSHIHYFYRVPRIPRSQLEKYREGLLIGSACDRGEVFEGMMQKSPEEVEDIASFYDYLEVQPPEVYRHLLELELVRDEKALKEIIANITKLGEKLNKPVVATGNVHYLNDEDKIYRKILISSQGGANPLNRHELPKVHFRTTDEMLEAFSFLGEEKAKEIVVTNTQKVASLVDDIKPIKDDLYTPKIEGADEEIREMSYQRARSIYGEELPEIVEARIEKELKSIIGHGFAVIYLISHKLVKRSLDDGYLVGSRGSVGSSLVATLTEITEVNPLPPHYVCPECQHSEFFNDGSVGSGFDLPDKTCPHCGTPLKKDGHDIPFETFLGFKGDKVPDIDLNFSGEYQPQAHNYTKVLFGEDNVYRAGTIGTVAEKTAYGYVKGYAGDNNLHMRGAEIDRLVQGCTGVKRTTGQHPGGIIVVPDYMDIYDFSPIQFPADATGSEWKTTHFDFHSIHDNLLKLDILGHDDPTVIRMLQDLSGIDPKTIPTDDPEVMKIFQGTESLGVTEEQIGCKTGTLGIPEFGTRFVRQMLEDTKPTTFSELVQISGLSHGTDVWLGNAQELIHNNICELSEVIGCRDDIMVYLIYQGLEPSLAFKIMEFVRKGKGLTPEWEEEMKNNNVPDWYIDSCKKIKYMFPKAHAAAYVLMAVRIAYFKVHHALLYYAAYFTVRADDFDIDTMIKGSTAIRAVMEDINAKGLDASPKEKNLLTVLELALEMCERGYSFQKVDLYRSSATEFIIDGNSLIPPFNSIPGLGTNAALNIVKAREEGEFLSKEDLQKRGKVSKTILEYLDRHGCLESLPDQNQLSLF

COc1ccc(-c2cc(C(=O)NN=Cc3cc(OC)c(OC)c(OC)c3)[nH]n2)cc1 [Compound 17]
IC50 (B. subtilis pol IIIC; B. subtilis Pol IIIC IC50, 4 dNTPs, in the presence of all four dNTP substrates): 36000 nM
IC50 (B. subtilis pol IIIC; B. subtilis Pol IIIC IC50, −dATP, in the absence of dATP): 3100 nM
IC50 (B. subtilis pol IIIC; B. subtilis Pol IIIC IC50, −dCTP, in the absence of dCTP): 2600 nM
IC50 (B. subtilis pol IIIC; B. subtilis Pol IIIC IC50, −dGTP, in the absence of dGTP): 1800 nM
MIC [1]: 1.25 µg/mL (≈ 3.05 µM)
MIC [2]: > 80 µg/mL
Inhibition of bacterial growth, result in words (rank of MIC values) (test strains of bacteria): lowest MIC values
